Reference: patent EP0249194A2, “Topical prostaglandin formulations” (AMERICAN CYANAMID COMPANY, priority 1986, dated 1987)
Read-outs that look alike come from different tables or passages of the source.

Assays:
[1] = test system: male pattern baldness; test: Clinical study of hair growth after once-daily topical application to the scalp, hair counts; type: in vivo, healthy, male volunteers; details: topical application of small amounts; mean hair counts over a six-month period (Figs. 1-5) and three-month chart
Procedure: Clinical studies using healthy, male volunteers (age 18-65) with vertex baldness and some recession of front hairline were performed using viprostol in Formulation A, above-described. The volunteers were not hypertensive. […] The hairs on such location were counted at the beginning of the study, and recounts were done periodically during the course of the study. All hair, including unpigmented vellus and pigmented intermediate and terminal hair was, counted, except as indicated hereinbelow. The amount of viprostol applied was approximately 120 mcg, which amount was applied once daily to the bald and balding areas of the scalp. The viprostol was contained in the above-described Formulation A. Approximately 0.3 ml of such formulation was topically to the scalp with an index finger and rubbing action. The scalp was clean (recently shampooed) and dry at application. The chart below summarizes the results after three months of study.
Additionally, as the study proceeded beyond three months, the results wre charted as mean hair counts over time.

[2] = Stability of viprostol compositions on storage in glass (ampules); type: physicochemical

- Stability of Viprostol Compositions (% of Initial Potency) ([2]; Initial): 100%
- remaining at 1440 h ([2]; neat bulk liquid, 23°C 2 months, read-out: Stability of Viprostol Compositions (% of Initial Potency)): 99%
- remaining at 4320 h ([2]; neat bulk liquid, 23°C 6 months, read-out: Stability of Viprostol Compositions (% of Initial Potency)): 87%
- remaining at 8760 h ([2]; neat bulk liquid, 23°C 12 months, read-out: Stability of Viprostol Compositions (% of Initial Potency)): 20%
- remaining at 13152 h ([2]; neat bulk liquid, 23°C 18 months, read-out: Stability of Viprostol Compositions (% of Initial Potency)): 12%
- remaining at 1440 h ([2]; neat bulk liquid, 42°C 2 months, read-out: Stability of Viprostol Compositions (% of Initial Potency)): 83%
- remaining at 720 h ([2]; neat bulk liquid, 56°C 1 month, read-out: Stability of Viprostol Compositions (% of Initial Potency)): 32%
- remaining at 1440 h ([2]; neat bulk liquid, 56°C 2 months, read-out: Stability of Viprostol Compositions (% of Initial Potency)): 0%
SMILES: C=CC(O)(CC=CC1C(O)CC(=O)C1CC=CCCCC(=O)OC)CCCC (racemic) [viprostol, Methyl (±)-[11α,5Z(5E), 13E, 16R and 16S]-16 ethenyl-11,16-dihydroxy-9-oxoprosta-5,13-dien-1-oate]
- hair growth [1]: caused hair growth
